Reference: patent EP4818157A1, “N-SUBSTITUTED CYCLIC AMIDE COMPOUND” (Kissei Pharmaceutical Co., Ltd., priority 2023, dated 2025)

Target: T1, human TSHR (Homo sapiens, UniProt P16473)
T1 construct: expressed in transfected cells
Assay: Measurement of antagonist activity using TSH-induced cAMP production in human TSHR-stably expressing CHO cells
Assay type: cell-based
Details: human TSH final concentration 50 ng/mL
Description: Measurement of Antagonist Activity Using TSH-induced cAMP Production in Human TSHR-stably Expressing CHO Cells as an Indicator
A gene sequence of human TSHR (reference number NM_000369.2) was inserted into a multiple cloning site of pcDNA3.1(+). The prepared plasmid vector was introduced into CHO cells by a lipofection method to establish human TSHR stably expressing CHO cells. The obtained cells were seeded in a poly-D-lysine-coated 96-well plate at 5 x 10^4 cells/well, and cultured for 1 day in F12 medium containing 10% FBS, 400 µg/mL G418, 50 U/mL penicillin, and 50 µg/mL streptomycin under conditions of 37°C and 5% CO2. After removing a medium, the cells were washed twice with 100 µL per well of an assay buffer (Hanks' Balanced Salt Solution containing 20 mM HEPES and 1 mM IBMX). 30 µL of an assay buffer containing a test compound was added to a well, and the mixture was incubated at room temperature for 15 minutes. Next, 30 µL of an assay buffer containing human TSH (R&D Systems, Inc., final concentration 50 ng/mL) was added, and the mixture was incubated at 37°C for 1 hour. The supernatant was removed, and Lysis and Detection Buffer 2 (Cisbio) was added to prepare a cell lysate by incubating at room temperature for 1 hour. According to the instructions for use of a cAMP Gs HiRange kit (Cisbio), a cell lysate was reacted with d2-labeled cAMP and an anti-cAMP Europium Cryptate labeled antibody (Cisbio) in a 384-well white microplate. Next, a fluorescence intensity ratio (measurement wavelengths 665 nm/620 nm) was measured using a multiplate reader (PHERAstar FSX, BMG LABTECH Japan). A fluorescence intensity ratio of each sample was converted into a cAMP content using a standard curve. A cAMP content was converted into a percentage of a control value, and a cAMP production rate was calculated. Using Prism (Graph Pad Software Inc.), a cAMP production rate was plotted against a test compound concentration, and an IC50 value was calculated. The IC50 of each test compound is shown in the above tables. In the tables, IC50 < 3.0 µM was denoted as A, and 3.0 µM ≤ IC50 < 30 µM was denoted as B. The case where activity was observed but an IC50 value could not be calculated was denoted as C.

T1 sequence (P16473 21-764): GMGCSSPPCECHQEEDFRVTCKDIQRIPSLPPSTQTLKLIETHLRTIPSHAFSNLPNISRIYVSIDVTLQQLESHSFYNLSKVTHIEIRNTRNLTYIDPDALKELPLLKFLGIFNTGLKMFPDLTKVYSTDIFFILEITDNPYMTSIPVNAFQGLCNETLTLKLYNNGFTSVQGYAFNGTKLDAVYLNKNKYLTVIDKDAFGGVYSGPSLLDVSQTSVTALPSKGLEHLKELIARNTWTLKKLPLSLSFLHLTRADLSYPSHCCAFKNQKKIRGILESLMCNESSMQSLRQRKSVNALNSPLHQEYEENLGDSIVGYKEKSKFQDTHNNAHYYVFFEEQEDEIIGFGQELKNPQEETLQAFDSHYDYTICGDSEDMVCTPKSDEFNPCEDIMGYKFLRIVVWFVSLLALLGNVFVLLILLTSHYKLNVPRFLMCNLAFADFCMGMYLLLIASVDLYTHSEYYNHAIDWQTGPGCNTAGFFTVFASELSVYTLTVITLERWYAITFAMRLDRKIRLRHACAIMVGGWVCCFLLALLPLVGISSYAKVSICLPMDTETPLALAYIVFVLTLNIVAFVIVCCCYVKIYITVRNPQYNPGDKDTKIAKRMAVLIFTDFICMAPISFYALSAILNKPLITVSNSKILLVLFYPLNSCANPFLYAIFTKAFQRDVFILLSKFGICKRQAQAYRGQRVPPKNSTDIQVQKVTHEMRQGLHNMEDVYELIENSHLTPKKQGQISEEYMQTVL

Compound | IC50 [µM]
Cc1ccc2c(c1)N(Cc1cc(C(F)F)ccc1F)C(=O)[C@H](NC(N)=O)C2 [Example C-13, (R)-1-(1-(5-(difluoromethyl)-2-fluorobenzyl)-7-methyl-2-oxo-1,2,3,4-tetrahydroquinolin-3-yl)urea] | < 3
C[C@@H]1CC[C@@H](NC(N)=O)C(=O)N1Cc1cc(Br)ccc1F (relative stereo) [Example A-1, 1-((3R^*,6R^*)-1-(5-bromo-2-fluorobenzyl)-6-methyl-2-oxopiperidin-3-yl)urea] | 3 to 30
C[C@@H]1CC[C@@H](NC(N)=O)C(=O)N1Cc1cc(-c2ccccc2)ccc1F (relative stereo) [Example A-4, 1-((3R^*,6R^*)-1-((4-fluoro-[1,1'-biphenyl]-3-yl)methyl)-6-methyl-2-oxopiperidin-3-yl)urea] | 3 to 30
NC(=O)NC1CCC2(CC2)N(Cc2cccc(C(F)(F)F)c2)C1=O (centres unmarked) [Example A-20, 1-(5-oxo-4-(3-(trifluoromethyl)benzyl)-4-azaspiro[2.5]octan-6-yl)urea] | 3 to 30
NC(=O)N[C@@H]1Cc2c(F)cccc2N(Cc2cc(C(F)(F)F)ccc2F)C1=O [Example C-9, (R)-1-(5-fluoro-1-(2-fluoro-5-(trifluoromethyl)benzyl)-2-oxo-1,2,3,4-tetrahydroquinolin-3-yl)urea] | < 3
O=C(N[C@@H]1CC[C@@H](C(F)F)N(Cc2cc(C(F)(F)F)ccc2F)C1=O)C1CC1 [Example A-28, N-((3R,6S)-6-(difluoromethyl)-1-(2-fluoro-5-(trifluoromethyl)benzyl)-2-oxopiperidin-3-yl)cyclopropanecarboxamide] | < 3
C[C@@H]1CC[C@@H](NC(N)=O)C(=O)N1Cc1cc(CCc2ccccc2)ccc1F (relative stereo) [Example A-12, 1-((3R^*,6R^*)-1-(2-fluoro-5-phenethylbenzyl)-6-methyl-2-oxopiperidin-3-yl)urea] | < 3
CC(C)(C)OC(=O)Nc1ccc2c(c1)OC(CC(N)=O)C(=O)N2Cc1cc(C(F)(F)F)ccc1F (centres unmarked) [Example F-8, tert-butyl (2-(2-amino-2-oxoethyl)-4-(2-fluoro-5-(trifluoromethyl)benzyl)-3-oxo-3,4-dihydro-2H-benzo[b][1,4]oxazin-7-yl)carbamate] | < 3
NC(=O)N[C@@H]1CC[C@@H](CN2CCCC2)N(Cc2cc(C(F)(F)F)ccc2F)C1=O [Example D-5, 1-((3R,6S)-1-(2-fluoro-5-(trifluoromethyl)benzyl)-2-oxo-6-(pyrrolidin-1-ylmethyl)piperidin-3-yl)urea] | > 30
CC(=O)N[C@@H]1CC[C@@H](C(F)F)N(Cc2cc(C(F)(F)F)ccc2F)C1=O [Example A-27, N-((3R,6S)-6-(difluoromethyl)-1-(2-fluoro-5-(trifluoromethyl)benzyl)-2-oxopiperidin-3-yl)acetamide] | 3 to 30
CNC(=O)N[C@@H]1CC[C@@H](C(F)(F)F)N(Cc2cc(C(F)(F)F)ccc2F)C1=O [Example A-24, 1-((3R,6S)-1-(2-fluoro-5-(trifluoromethyl)benzyl)-2-oxo-6-(trifluoromethyl)piperidin-3-yl)-3-methylurea] | < 3
C[C@@H]1CC[C@@H](NC(N)=O)C(=O)N1Cc1cc(Cc2ccccc2)ccc1F (relative stereo) [Example A-5, 1-((3R^*,6R^*)-1-(5-benzyl-2-fluorobenzyl)-6-methyl-2-oxopiperidin-3-yl)urea] | < 3
CC(c1cc(C(F)(F)F)ccc1F)N1C(=O)[C@H](NC(N)=O)Cc2ccc(F)cc21 (stereo partly drawn) [Example C-24, 1-((3R)-7-fluoro-1-(1-(2-fluoro-5-(trifluoromethyl)phenyl)ethyl)-2-oxo-1,2,3,4-tetrahydroquinolin-3-yl)urea] | 3 to 30
NC(=O)N[C@@H]1C[C@@H]2CCCC[C@H]2N(Cc2cccc(C(F)(F)F)c2)C1=O (relative stereo) [Example A-29, 1-((3R^*,4aS^*,8aR^*)-(2-oxo-1-(3-(trifluoromethyl)benzyl)decahydroquinolin-3-yl)urea] | > 30
O=C(NC1CC1)N[C@@H]1CC[C@@H](C(F)F)N(Cc2cc(C(F)(F)F)ccc2F)C1=O [Example A-26, 1-cyclopropyl-3-((3R,6S)-6-(difluoromethyl)-1-(2-fluoro-5-(trifluoromethyl)benzyl)-2-oxopiperidin-3-yl)urea] | 3 to 30

Continued, values first:

IC50 [µM] | Compound
< 3 | CN(C)Cc1ccc(NC(N)=O)c(=O)n1Cc1cc(C(F)(F)F)cc(Cl)c1F [Example E-3, 1-(1-(3-chloro-2-fluoro-5-(trifluoromethyl)benzyl)-6-((dimethylamino)methyl)-2-oxo-1,2-dihydropyridin-3-yl)urea]
< 3 | NC(=O)N[C@@H]1Cc2ccc(C(F)(F)F)cc2N(Cc2cc(C(F)F)ccc2F)C1=O [Example C-15, (R)-1-(1-(5-(difluoromethyl)-2-fluorobenzyl)-2-oxo-7-(trifluoromethyl)-1,2,3,4-tetrahydroquinolin-3-yl)urea]
< 3 | COc1ccc2c(c1)N(Cc1cccc(C(F)(F)F)c1)C(=O)[C@H](NC(N)=O)C2 [Example C-7, (R)-1-(7-methoxy-2-oxo-1-(3-(trifluoromethyl)benzyl)-1,2,3,4-tetrahydroquinolin-3-yl)urea]
< 3 | C[C@@H]1CC[C@@H](NC(N)=O)C(=O)N1Cc1cc(C(F)(F)F)cc(Cl)c1F (relative stereo) [Example A-3, 1-((3R^*,6R^*)-1-(3-chloro-2-fluoro-5-(trifluoromethyl)benzyl)-6-methyl-2-oxopiperidin-3-yl)urea]
< 3 | NC(=O)Nc1ccc(CO)n(Cc2cc(C(F)(F)F)cc(Cl)c2F)c1=O [Example E-1, 1-(1-(3-chloro-2-fluoro-5-(trifluoromethyl)benzyl)-6-(hydroxymethyl)-2-oxo-1,2-dihydropyridin-3-yl)urea]
< 3 | C[C@@H]1CC[C@@H](NC(N)=O)C(=O)N1Cc1cc(C#Cc2cccnc2)ccc1F (relative stereo) [Example A-9, 1-((3R^*,6R^*)-1-(2-fluoro-5-(pyridin-3-ylethynyl)benzyl)-6-methyl-2-oxopiperidin-3-yl)urea]
< 3 | NC(=O)N[C@@H]1Cc2ccc(Cl)cc2N(Cc2cc(C(F)F)ccc2F)C1=O [Example C-12, (R)-1-(7-chloro-1-(5-(difluoromethyl)-2-fluorobenzyl)-2-oxo-1,2,3,4-tetrahydroquinolin-3-yl)urea]
< 3 | NC(=O)N[C@@H]1C[C@H]2C[C@H]2N(Cc2cc(C(F)(F)F)ccc2F)C1=O (relative stereo) [Example A-21, 1-((1R^*,4R^*,6S^*)-2-(2-fluoro-5-(trifluoromethyl)benzyl)-3-oxo-2-azabicyclo[4.1.0]heptan-4-yl)urea]
3 to 30 | CN(C)Cc1cccc2c1N(Cc1cc(C(F)(F)F)ccc1F)C(=O)[C@H](NC(N)=O)C2 [Example F-3, (R)-1-(8-((dimethylamino)methyl)-1-(2-fluoro-5-(trifluoromethyl)benzyl)-2-oxo-1,2,3,4-tetrahydroquinolin-3-yl)urea]
3 to 30 | NC(=O)Nc1ccc2n(c1=O)CC(c1cccc(C(F)(F)F)c1)C2 (centres unmarked) [Example E-7, 1-(5-oxo-2-(3-(trifluoromethyl)phenyl)-1,2,3,5-tetrahydroindolizin-6-yl)urea]
< 3 | Cc1ccc(NC(N)=O)c(=O)n1Cc1cc(C(F)(F)F)cc(Cl)c1F [Example B-5, 1-(1-(3-chloro-2-fluoro-5-(trifluoromethyl)benzyl)-6-methyl-2-oxo-1,2-dihydropyridin-3-yl)urea]
